Test results from patent publication US6667387B1, “HCV core peptides” (priority 1992, dated 2003).
* marks the point of attachment. Biotin = O=C1N[C@H]2[C@H](CS[C@H]2CCCCC(=O)*)N1

Tests used:
[1] = test system: antibodies in sera from HCV-seropositive donors; test: ELISA with HCV antibody-positive sera (biotinylated peptides on streptavidin- or avidin-coated plates, unbiotinylated peptides coated directly); assay type: binding, human; details: Table 8, Avidin
Procedure, shortened: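 Peptides coated either directly at 2–5 or 3 μg/ml in carbonate buffer pH 9.6, or biotinylated at 1 μg/ml on streptavidin-coated wells (3 μg/ml). Plates casein-blocked, then human sera (1:100 or 1:20) incubated 1 h at 37° C. Bound antibody detected with HRP anti-human Ig/TMB, read as OD450.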

[2] = ELISA with seronegative / negative control sera (specificity); assay type: binding, human
Procedure, shortened: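 Specificity readout is OD at 450 nm (HRP goat anti-human Ig, TMB/H2O2, sulfuric acid stop), with ≥0.250 counted positive. Seronegative donor sera (typically 1:100, 1 h, 37° C) were applied to casein-blocked wells coated with peptide directly or via streptavidin capture of biotinylated peptide.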

[3] = Table 8, serum 1782 (blood donor), Avidin
[4] = Table 8, serum 1784 (blood donor), Avidin
[5] = Table 8, serum 1785 (blood donor), Avidin
[6] = Table 8, serum 1794 (blood donor), Avidin

Substance	optical density (450 nm) ([1]; serum 8243 (HCV))	optical density (450 nm) ([1]; serum 8247 (HCV))	optical density (450 nm) ([1]; serum 8248 (HCV))	optical density (450 nm) ([1]; serum 8269 (HCV))	optical density (450 nm) ([1]; serum 8273 (HCV))	optical density (450 nm) ([1]; serum 8278 (HCV))	optical density (450 nm) ([1]; serum 8285 (HCV))	optical density (450 nm) ([1]; serum 8290 (HCV))	optical density (450 nm) ([1]; serum 8291 (HCV))	optical density (450 nm) [2, 3]	optical density (450 nm) [2, 4]	optical density (450 nm) [2, 5]	optical density (450 nm) [2, 6]	further results
Bio-Gly-Gly-Gly-Ile-Trp-Gly-Cys-Ser-Gly-Lys-Leu-Ile-Cys-NH2 (Biotin-GGGIWGCSGKLIC-NH2; cysteine pairing not given here) [TM-HIV-1 Bio]	0.108	0.042	0.043	0.053	0.053	0.046	0.134	0.045	0.048	0.052	0.044	0.046	0.124	optical density (450 nm) ([2]; Table 1, serum 180, seronegative donor): 0.005; optical density (450 nm) ([2]; Table 1, serum 194, seronegative donor): 0.000; optical density (450 nm) ([2]; Table 1, serum 195, seronegative donor): 0.000; optical density (450 nm) ([2]; Table 1, serum 204, seronegative donor): 0.001; optical density (450 nm) ([2]; Table 6, serum 1733, seronegative blood donor): 0.000; optical density (450 nm) ([2]; Table 6, serum 1747, seronegative blood donor): 0.000; optical density (450 nm) ([2]; Table 6, serum 1784, seronegative blood donor): 0.000
Bio-Gly-Gly-Tyr-Asn-Lys-Arg-Lys-Arg-Ile-His-Ile-Gly-Pro-Gly-Arg-Ala-Phe-Tyr-Thr-Thr-Lys-Asn-Ile-Ile-Gly-NH2 (Biotin-GGYNKRKRIHIGPGRAFYTTKNIIG-NH2) [V3-mn Bio]	0.114	0.052	0.048	0.056	0.056	0.053	0.143	0.050	0.053	0.059	0.046	0.048	0.091	optical density (450 nm) ([2]; Table 2, negative control): 0.069; optical density (450 nm) ([2]; Table 3, Control, peptide bound to avidin): 0.063; optical density (450 nm) ([2]; Table 3, Control, peptide bound to streptavidin): 0.050
